Experimental data: patent US20130123215A1, “2,5-DIOXOIMIDAZOLIDIN-1-YL-3-PHENYLUREA DERIVATIVES AS FORMYL PEPTIDE RECEPTOR LIKE-1 (FPRL-1) RECEPTOR MODULATORS” (ALLERGAN, INC., priority 2011, published 2013)

Biological target: T1, FPRL-1 (Homo sapiens, UniProt P25090)
T1 construct: expressed in transfected cells; host or cells: CHO-Gα16 cells stably expressing FPRL1
T1 sequence (P25090 1-351): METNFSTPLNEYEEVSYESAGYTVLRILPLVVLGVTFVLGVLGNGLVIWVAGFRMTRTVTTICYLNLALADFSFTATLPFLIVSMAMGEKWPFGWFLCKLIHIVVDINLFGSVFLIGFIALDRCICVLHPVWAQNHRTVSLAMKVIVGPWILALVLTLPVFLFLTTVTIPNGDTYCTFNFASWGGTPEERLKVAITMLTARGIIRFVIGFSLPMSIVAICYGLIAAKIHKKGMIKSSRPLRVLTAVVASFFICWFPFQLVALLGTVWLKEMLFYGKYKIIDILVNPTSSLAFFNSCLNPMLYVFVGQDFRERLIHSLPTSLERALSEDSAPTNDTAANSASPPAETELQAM
Experiment: FPRL-1 Ga16-CHO compound-induced calcium activity (FLIPR Tetra)
Assay type: cell-based
Conditions: CHO-Gα16 cells stably expressing FPRL1; calcium activity on FLIPR Tetra; tested at 0.61 to 10,000 nM; read-out: FPRL-1 Ga16-CHO EC50
Experimental: HEK-Gα16 and CHO-Gα16 cells stably expressing FPRL1 were cultured in (F12, 10% FBS, 1% PSA, 400 μg/ml geneticin and 50 μg/ml hygromycin) and HEK-Gqi5 cells stable expressing FPR1 were cultured in (DMEM high glucose, 10% FBS, 1% PSA, 400 μg/ml geneticin and 50 μg/ml hygromycin). In general, the day before the experiment, 18,000 cells/well were plated in a 384-well clear bottom poly-d-lysine coated plate. The following day the screening compound-induced calcium activity was assayed on the FLIPR^Tetra. The drug plates were prepared in 384-well microplates using the EP3 and the MultiPROBE robotic liquid handling systems. Compounds were tested at concentrations ranging from 0.61 to 10,000 nM. Results are expressed as EC50 (nM) and efficacy values.

Row | SMILES | EC50 [nM]
1 | CC1(CCc2ccccc2F)NC(=O)N(NC(=O)Nc2ccc(Br)cc2F)C1=O (stereo not shown) [Compound 38, 1-(4-Bromo-2-fluorophenyl)-3-(4-(2-fluorophenethyl)-4-methyl-2,5-dioxoimidazolidin-1-yl)urea] | 56.2
2 | COC(=O)c1ccccc1CCC1(C)NC(=O)N(NC(=O)Nc2ccc(Br)cc2)C1=O (stereo not shown) [Compound 59, Methyl 2-(2-(1-(3-(4-bromophenyl)ureido)-4-methyl-2,5-dioxoimidazolidin-4-yl)ethyl)benzoate] | 28.9
3 | CC(C)C1(CO)NC(=O)N(NC(=O)Nc2ccc(Br)cc2)C1=O (stereo not shown) [Compound 74, 1-(4-Bromophenyl)-3-(4-(hydroxymethyl)-4-isopropyl-2,5-dioxoimidazolidin-1-yl)urea] | 2.65
4 | CCC1(CC)NC(=O)N(NC(=O)Nc2ccc(Cl)c(F)c2)C1=O [Compound 19, 1-(4-Chloro-3-fluorophenyl)-3-(4,4-diethyl-2,5-dioxoimidazolidin-1-yl)urea] | 149
5 | CC(C)C1(CCO)NC(=O)N(NC(=O)Nc2ccc(Br)cc2)C1=O (stereo not shown) [Compound 75, 1-(4-Bromophenyl)-3-(4-(2-hydroxyethyl)-4-isopropyl-2,5-dioxoimidazolidin-1-yl)urea] | 21.2
6 | CC1(CCc2ccc(O)cc2)NC(=O)N(NC(=O)Nc2ccc(Br)cc2)C1=O (stereo not shown) [Compound 42, 1-(4-Bromophenyl)-3-(4-(4-hydroxyphenethyl)-4-methyl-2,5-dioxoimidazolidin-1-yl)urea] | 13.3
7 | CCC1(CCc2ccccc2C(=O)OC)NC(=O)N(NC(=O)Nc2ccc(Br)cc2F)C1=O (stereo not shown) [Compound 61, Methyl 2-(2-(1-(3-(4-bromo-2-fluorophenyl)ureido)-4-ethyl-2,5-dioxoimidazolidin-4-yl)ethyl)benzoate] | 14.9
8 | CCC1(CC)NC(=O)N(NC(=O)Nc2ccc(OC)cc2)C1=O [Compound 3, 1-(4-Methoxyphenyl)-3-(4,4-diethyl-2,5-dioxoimidazolidin-1-yl)urea] | 194
9 | CC(C)CC1(CCc2ccccc2)NC(=O)N(NC(=O)Nc2ccc(Br)cc2)C1=O (stereo not shown) [Compound 31] | 86.4
10 | CC1(Cc2c[nH]c3ccccc23)NC(=O)N(NC(=O)Nc2ccc(Br)cc2)C1=O (stereo not shown) [Compound 64, 1-(4-Bromophenyl)-3-[4-(1H-indol-3-ylmethyl)-4-methyl-2,5-dioxoimidazolidin-1-yl]urea] | 114
11 | CC(C)OP(=O)(CNC(=O)CC1(C(C)C)NC(=O)N(NC(=O)Nc2ccc(Br)cc2)C1=O)OC(C)C (stereo not shown) [Compound 88, Diisopropyl((2-(1-(3-(4-bromophenyl)ureido)-4-isopropyl-2,5-dioxoimidazolidin-4-yl)acetamido)methyl)phosphonate] | 193
12 | CC1(CCc2ccc(O)cc2)NC(=O)N(NC(=O)Nc2ccc(Br)cc2F)C1=O (stereo not shown) [Compound 45, 1-(4-Bromo-2-fluorophenyl)-3-(4-(4-hydroxyphenethyl)-4-methyl-2,5-dioxoimidazolidin-1-yl)urea] | 8.7
13 | CC1(CCc2ccc(O)c(F)c2)NC(=O)N(NC(=O)Nc2ccc(Br)cc2F)C1=O (stereo not shown) [Compound 48, 1-(4-Bromo-2-fluorophenyl)-3-{4-[2-(3-fluoro-4-hydroxyphenyl)ethyl]-4-methyl-2,5-dioxoimidazolidin-1-yl}urea] | 7.4
14 | CC1(CCc2ccco2)NC(=O)N(NC(=O)Nc2ccc(Br)cc2)C1=O (stereo not shown) [Compound 35] | 6.9
15 | CC1(CCc2ccc(C(=O)O)cc2)NC(=O)N(NC(=O)Nc2ccc(Br)cc2)C1=O (stereo not shown) [Compound 77, 4-(2-(1-(3-(4-Bromophenyl)ureido)-4-methyl-2,5-dioxoimidazolidin-4-yl)ethyl)benzoic acid] | 210
16 | CC1(CCc2ccc(F)cc2)NC(=O)N(NC(=O)Nc2ccc(Br)cc2F)C1=O (stereo not shown) [Compound 40, 1-(4-Bromo-2-fluorophenyl)-3-(4-(4-fluorophenethyl)-4-methyl-2,5-dioxoimidazolidin-1-yl)urea] | 118
17 | CC1(CCc2ccncc2)NC(=O)N(NC(=O)Nc2ccc(Br)cc2F)C1=O (stereo not shown) [Compound 55] | 28.6
18 | CC(C)C1(CC(=O)NCC(=O)O)NC(=O)N(NC(=O)Nc2ccc(Br)cc2)C1=O (stereo not shown) [Compound 92, 2-(2-(1-(3-(4-Bromophenyl)ureido)-4-isopropyl-2,5-dioxoimidazolidin-4-yl)acetamido)acetic acid] | 133
19 | CC(C)C1(C(C)C)NC(=O)N(NC(=O)Nc2ccc(Br)cc2)C1=O [Compound 67, 1-(4-Bromophenyl)-3-[2,5-dioxo-4,4-di(propan-2-yl)imidazolidin-1-yl]urea] | < 2

Row | SMILES | EC50 [nM]
20 | CC(C)C1(CC(=O)O)NC(=O)N(NC(=O)Nc2ccc(Br)cc2F)C1=O (stereo not shown) [Compound 82, 2-(1-(3-(4-Bromo-2-fluorophenyl)ureido)-4-isopropyl-2,5-dioxoimidazolidin-4-yl)acetic acid] | 713
21 | CCC1(C(C)C)NC(=O)N(NC(=O)Nc2ccc(Br)cc2F)C1=O (stereo not shown) [Compound 20, 1-(4-Bromo-2-fluorophenyl)-3-(4-ethyl-4-isopropyl-2,5-dioxoimidazolidin-1-yl)urea] | 6.3
22 | CC(C)C1(CC(=O)O)NC(=O)N(NC(=O)Nc2ccc(Br)cc2)C1=O (stereo not shown) [Compound 81, 2-(1-(3-(4-Bromophenyl)ureido)-4-isopropyl-2,5-dioxoimidazolidin-4-yl)acetic acid] | 459
23 | CC1(CCc2ccc(Cl)cc2)NC(=O)N(NC(=O)Nc2ccc(Br)cc2)C1=O (stereo not shown) [Compound 33, 1-(4-Bromophenyl)-3-(4-(4-chlorophenethyl)-4-methyl-2,5-dioxoimidazolidin-1-yl)urea] | 333
24 | O=C(Nc1ccc(Br)cc1)NN1C(=O)NC2(Cc3ccccc3C2)C1=O [Compound 13, 1-(4-Bromophenyl)-3-(2,5-dioxo-1′,3′-dihydrospiro[imidazolidine-4,2′-inden]-1-yl)urea] | 47
25 | CC(C)C1(CO)NC(=O)N(NC(=O)Nc2ccc(Br)cc2F)C1=O (stereo not shown) [Compound 76, 1-(4-Bromo-2-fluorophenyl)-3-(4-(2-hydroxymethyl)-4-isopropyl-2,5-dioxoimidazolidin-1-yl)urea] | 50
26 | O=C(Nc1ccc(Br)cc1F)NN1C(=O)NC2(CCc3ccccc3C2)C1=O (stereo not shown) [Compound 26] | 191
27 | O=C(Nc1ccc(Br)cc1)NN1C(=O)NC2(CCc3ccccc3C2)C1=O (stereo not shown) [Compound 27, 1-(4-Bromophenyl)-3-(2,5-dioxo-3′,4′-dihydro-1H,1′H-spiro[imidazolidine-4,2′-naphthalen]-1-yl)urea] | 53.5
28 | CC1(CCc2ccccc2C(=O)O)NC(=O)N(NC(=O)Nc2ccc(Br)cc2)C1=O (stereo not shown) [Compound 78, 2-(2-(1-(3-(4-Bromophenyl)ureido)-4-methyl-2,5-dioxoimidazolidin-4-yl)ethyl)benzoic acid] | 17.2
29 | CC1(CCc2ccccc2O)NC(=O)N(NC(=O)Nc2ccc(Br)cc2F)C1=O (stereo not shown) [Compound 51, 1-(4-Bromo-2-fluorophenyl)-3-(4-(2-hydroxyphenethyl)-4-methyl-2,5-dioxoimidazolidin-1-yl)urea] | 5.8
30 | CCc1ccc2[nH]c(C3(C)NC(=O)N(NC(=O)Nc4ccc(Br)cc4F)C3=O)cc2c1 (stereo not shown) [Compound 65, 1-(4-Bromo-2-fluorophenyl)-3-[4-(5-ethyl-1H-indol-2-yl)-4-methyl-2,5-dioxoimidazolidin-1-yl]urea] | 169
31 | COc1ccc(COCCC2(C(C)C)NC(=O)N(NC(=O)Nc3ccc(Br)cc3)C2=O)cc1 (stereo not shown) [Compound 49, 1-(4-Bromophenyl)-3-(4-isopropyl-4-(2-((4-methoxybenzyl)oxy)ethyl)-2,5-dioxoimidazolidin-1-yl)urea] | 232
32 | CC1(C)NC(=O)N(NC(=O)Nc2ccc(Br)cc2)C1=O [Compound 12, 1-(4-Bromophenyl)-3-(4,4-dimethyl-2,5-dioxoimidazolidin-1-yl)urea] | 74.9
33 | COC(=O)c1ccc(CCC2(C)NC(=O)N(NC(=O)Nc3ccc(Br)cc3)C2=O)cc1 (stereo not shown) [Compound 58, Methyl 4-(2-(1-(3-(4-Bromophenyl)ureido)-4-methyl-2,5-dioxoimidazolidin-4-yl)ethyl)benzoate] | 204
34 | CCC1(CCc2ccccc2C(=O)O)NC(=O)N(NC(=O)Nc2ccc(Br)cc2F)C1=O (stereo not shown) [Compound 80, 2-[2-(1-{[(4-Bromo-2-fluorophenyl)carbamoyl]amino}-4-ethyl-2,5-dioxoimidazolidin-4-yl)ethyl]benzoic acid] | 11.1
35 | CC1(CCc2ccccc2)NC(=O)N(NC(=O)Nc2ccc(Br)cc2F)C1=O (stereo not shown) [Compound 17, 1-(4-Bromo-2-fluorophenyl)-3-(4-methyl-2,5-dioxo-4-phenethylimidazolidin-1-yl)urea] | 61
36 | CC1(CCc2ccc(F)cc2)NC(=O)N(NC(=O)Nc2ccc(Br)cc2)C1=O (stereo not shown) [Compound 39, 1-(4-Bromophenyl)-3-(4-(4-fluorophenethyl)-4-methyl-2,5-dioxoimidazolidin-1-yl)urea] | 17
37 | CC1(CCc2ccccc2O)NC(=O)N(NC(=O)Nc2ccc(Br)cc2)C1=O (stereo not shown) [Compound 50, 1-(4-Bromophenyl)-3-(4-(2-hydroxyphenethyl)-4-methyl-2,5-dioxoimidazolidin-1-yl)urea] | 0.97
